# Assay results published in patent US4789665A, “Anthracyclines and drugs containing them” (Laboratoires Hoechst S. A., priority 1985, dated 1988).
# Test system: leukemia L 1210 strain cells
# Test: cell proliferation test (colony formation, procedure of HAMBURGER and SALMON), continuous exposure
# Format: cell-based
# Conditions: Mus musculus, L1210, read-out: IC50 (continuous exposure)
# Procedure: The experimental protocol was performed according to the procedure of HAMBURGER and SALMON on leukemia L 1210 strain cells. Some modifications were introduced in the procedure of HAMBURGER and SALMON, and in particular:
# the conditioned medium was replaced by McCoy5A. The number of cells in a dish was reduced to 5×10^2 cells per dish on account of the high covering efficiency of leukemia L 1210. […]
# In addition, parallel experiments were carried out with continuous incubation and with various concentrations of the test substance by mixing the latter with the upper layer before application.
# The dishes were kept in an incubator with 5% CO2, 20% O2, at 95% relative humidity for 5 to 7 days at 37° C. After this period, the colonies having a diameter greater than 60 μm were counted with an inverted microscope.
# The results were expressed as a percentage of the number of colonies formed from treated L 1210 relative to an untreated control. The coefficient of variation of repeated experiments was less than 15%.
row,SMILES,IC50 [µg/mL]
1,COc1cccc2c1C(=O)c1c(O)c3c(c(O)c1C2=O)C[C@@](O)(C(C)=O)C[C@@H]3O[C@H]1C[C@H](NCC#N)[C@H](O)[C@H](C)O1 [3'-N-(cyanomethyl)daunorubicin],0.0028
2,COCCN(CC#N)[C@H]1C[C@H](O[C@H]2C[C@](O)(C(C)=O)Cc3c(O)c4c(c(O)c32)C(=O)c2c(OC)cccc2C4=O)O[C@@H](C)[C@H]1O [3'-N-cyanomethyl-3'-N-(2-methoxyethyl)daunorubicin],0.09

# Same assay, conditions: Mus musculus, L1210; L 1210 leukemia cells, continuous incubation, colonies >60 μm counted after 5 to 7 days at 37° C; read-out: IC50 (continuous exposure)
row,SMILES,IC50 [µg/mL]
1,"COc1cccc2c1C(=O)c1c(O)c3c(c(O)c1C2=O)C[C@@](O)(C(C)=O)C[C@@H]3O[C@H]1C[C@H](N(CC#N)CC#N)[C@H](O)[C@H](C)O1 [3'-N,N-bis(cyanomethyl)daunorubicin]",0.08
2,"COCCOCCN(CCOCCOC)[C@H]1C[C@H](O[C@H]2C[C@](O)(C(C)=O)Cc3c(O)c4c(c(O)c32)C(=O)c2c(OC)cccc2C4=O)O[C@@H](C)[C@H]1O [3'-N,N-bis[2-(2-methoxyethoxy)ethyl]daunorubicin]",0.22
3,"CCN(CC)C(=O)CN(CC(=O)N(CC)CC)[C@H]1C[C@H](O[C@H]2C[C@](O)(C(C)=O)Cc3c(O)c4c(c(O)c32)C(=O)c2c(OC)cccc2C4=O)O[C@@H](C)[C@H]1O [3'-N,N-bis[(N,N-diethylcarbamoyl)methyl]daunorubicin]",0.65
4,COCCN[C@H]1C[C@H](O[C@H]2C[C@](O)(C(C)=O)Cc3c(O)c4c(c(O)c32)C(=O)c2c(OC)cccc2C4=O)O[C@@H](C)[C@H]1O [3'-N-(2-methoxyethyl)daunorubicin],0.01
5,COC(=O)CN[C@H]1C[C@H](O[C@H]2C[C@](O)(C(C)=O)Cc3c(O)c4c(c(O)c32)C(=O)c2c(OC)cccc2C4=O)O[C@@H](C)[C@H]1O [3'-N-(carbomethoxymethyl)daunorubicin],0.24
6,COCCOCCN[C@H]1C[C@H](O[C@H]2C[C@](O)(C(C)=O)Cc3c(O)c4c(c(O)c32)C(=O)c2c(OC)cccc2C4=O)O[C@@H](C)[C@H]1O [3'-N-[2-(2-methoxyethoxy)ethyl]daunorubicin],0.07
7,"CCN(CC)C(=O)CN[C@H]1C[C@H](O[C@H]2C[C@](O)(C(C)=O)Cc3c(O)c4c(c(O)c32)C(=O)c2c(OC)cccc2C4=O)O[C@@H](C)[C@H]1O [3'-N-[(N,N-diethylcarbamoyl)methyl]daunorubicin]",0.28
8,"COc1cccc2c1C(=O)c1c(O)c3c(c(O)c1C2=O)C[C@@](O)(C(C)=O)C[C@@H]3O[C@H]1C[C@H](N)[C@H](O)[C@H](C)O1 [DAUNORUBICIN, daunorubicin, reference compound]",0.02
9,"COc1cccc2c1C(=O)c1c(O)c3c(c(O)c1C2=O)C[C@@](O)(C(=O)CO)C[C@@H]3O[C@H]1C[C@H](N)[C@H](O)[C@H](C)O1 [DOXORUBICIN, doxorubicin, reference compound]",0.02
